Measurements reported in patent publication US12428666B2, “Compositions and methods related to kethoxal derivatives” (The University of Chicago, priority 2018, dated 2025).
“Also recorded” adds a separate entry of the source.

Tests used:
[1] = system: Pol II; test: ssDNA-seq after Pol II inhibitor treatment; format: cell-based, human; conditions: for ssDNA peak number: 2 h, control more than 43,000; for distribution of ssDNA-seq peaks on gene coding regions: after inhibitor treatment vs control
Protocol: N3-kethoxal enables genome-wide single-stranded DNA mapping (ssDNA-seq). Taking advantage of the sensitivity and the selectivity of N3-kethoxal towards single-stranded nucleic acids, the inventors first applied N3-kethoxal to map single-stranded regions of the genome, which has not been previously achieved. Human embryonic kidney (HEK) cells were cultured in N3-kethoxal-containing medium for 10 min to facilitate labelling before harvested. Genomic DNA was then purified and subjected to biotinylation reaction through “click” chemistry. Biotinylated DNA was purified and fragmented, followed by immunoprecipitation with streptavidin-coated beads. Enriched DNA and their corresponding inputs was used to make libraries, which were then sequenced and aligned.
ssDNA is performed by: (1) Prepare labeling medium by adding 5 μL pure N3-kethoxal to 5 mL pre-warmed cell culture medium for each 10 cm dish. (2) Incubate cells in the labeling medium for 10 min at 37° C., 5% CO2. (3) For transcription inhibition experiments, cells were treated for 2 h under 100 μM DRB or 1 μM triptolide before incubated in N3-kethoxal-containing medium. (4) Harvest cells after the 10 min incubation, isolate total DNA from cells by PureLink genomic DNA mini kit according to the manufacturer's protocol. (5) Suspend 5 μg total DNA in 85 μL H2O, then add 10 μL 10×PBS and 5 μL 20 mM DBCO-PEG4-biotin (DMSO solution), incubate the mixture at 37° C. for 2 h. (6) Add 5 μL RNase A to the reaction mixture, incubate the mixture at 37° C. for another 15 min. (7) Recover DNA from the reaction mixture by DNA Clean & Concentrator kit according to the manufacturer's protocol.

[2] = system: guanine; test: Reaction of N3-kethoxal with RNA nucleic bases and RNA oligos (HPLC, MALDI-TOF); format: biochemical; conditions: 12 mer RNA oligo with 4 guanines
Protocol: The reaction of N3-kethoxal and RNA was generally performed with the following protocol: 100 pmol RNA oligo and 1 μmol N3-kethoxal was incubated in total 10 μL solution in PBS buffer at 37° C. for 10 mins. […] The purified labelled RNA can be used for further studies such as mass spectrometry, gel electrophoresis and copper-free click reaction with biotin-DBCO.
MALDI-TOF-MS analysis of N3-kethoxal labelled RNA oligo. […] Meanwhile the buffer exchange occurred from PBS buffer to tris buffer that can be directly used in MALDI-TOF-MS experiment without extra desalt step. One microliter of product solution was mixed with one microliter matrix which include 8:1 volume ratio of 2′4′6′-trihydroxyacetophenone (THAP, 10 mg/mL in 50% CH3CN/H2O):ammonium citrate (50 mg/mL in H2O). Then the mixture was spotted on the MALDI sample plate, dried and analyzed by Bruker Ultraflextreme MALDI-TOF-TOF Mass Spectrometers.
The product of N3-kethoxal with for RNA nucleic bases was analyzed using LC-6AD (Shimadzu, Japan) HPLC instrument, which equipped with an Inertsil ODS-SP column ([…], 250×4.6 mm) (GL Science Inc. Japan). The phase A (100 mM TEAA buffer, pH=7.0) and phase B (CH3CN) were used as eluents with a flow rate of 1 mL/min at 35° C. (B conc.: 5-5-30%/0-5-30 min).

[3] = system: mRNA secondary structures in live cells; test: KARRI after translation inhibitor treatment; format: cell-based; conditions: 100 μg/mL cycloheximide or 3 μg/mL harringtonine, 37° C., 10 min
Protocol: KARRI is performed by: (1) Suspend live cells in 1% formaldehyde solution at 1×10^6/mL and incubate at room temperature for 10 min with gentle rotate. Then quench this reaction by adding glycine to a final concentration of 125 mM and rotate the mixture at room temperature for 5 min. For translation inhibitor treatment, cells were treated with 100 μg/mL cycloheximide or 3 μg/mL harringtonine at 37° C. for 10 min. (2) Collect and take 2×10^6 cells. Dilute N3-Kethoxal by 1:5 using DMSO. Make a labeling buffer by adding 10 μL N3-Kethoxal into 290 μL lysis buffer (10 mM Tris-HCl pH 8.0, 10 mM NaCl, 0.2 IGEPAL CA630) with 3 μL 100× proteinase inhibitor cocktail. (3) Suspend cells in labeling buffer and rotate at room temperature for 30 min, then centrifuge at 2500 g for 5 min at 4° C. to collect cells. (4) Wash cell pellets with 500 μL ice-cold lysis buffer for 3 times. (5) Suspend the pellet in 500 μL MeOH containing 10 μM dendrimers, rotate for 1 h at 37° C. Then centrifuge at 2500 g for 5 min at 4° C. to collect cells. (6) Wash cell pellet twice with 500 μL ice-cold lysis buffer. (7) Resuspend cells in 385 μL lysis buffer, add 50 μL 10% SDS, 30 μL proteinase K, 10 μL RNase inhibitor, 25 μL 500 mM K3BO3, shake at 65° C. for 2 h. (8) Add 500 μL phenol-chloroform to extract RNA and purify RNA by EtOH precipitation. […]

Row | Compound | distribution of ssDNA-seq peaks on gene coding regions [1] | effect on in vivo RNA secondary structures (KARRI) [3] | also measured
1 | OC[C@H]1O[C@@H](n2cnc3cc(Cl)c(Cl)cc32)[C@H](O)[C@@H]1O [DRB, 5,6-dichloro-1-β-D-ribofuranosylbenzimidazole] | Stronger peaks were observed at TSS while peaks on gene body and TES were eliminated | – | ssDNA peak number ([1]; 100 μM DRB): around 16,000
2 | Cc1ncccc1C(=O)n1ccnc1 [NAI, reference compound] | – | – | labelling of RNA oligo (MALDI-TOF molecular weight of product) [2]: some oligoes were only reacted by one NAI and some were labelled by two or three
3 | CC(C)[C@]12O[C@H]1[C@@H]1O[C@]13[C@]1(O[C@H]1C[C@H]1C4=C(CC[C@@]13C)C(=O)OC4)[C@@H]2O [Triptolide, triptolide] | most peaks on gene coding regions disappeared | – | ssDNA peak number ([1]; 1 μM triptolide): ~3,700
4 | C[C@@H]1C[C@@H]([C@H](O)CC2CC(=O)NC(=O)C2)C(=O)[C@@H](C)C1 [cycloheximide] | – | undermined in vivo-specific structures and increased in vitro features | –
5 | COC(=O)C[C@](O)(CCC(C)(C)O)C(=O)O[C@@H]1C(OC)=C[C@]23CCCN2CCc2cc4c(cc2[C@H]13)OCO4 [harringtonine] | – | undermined in vivo-specific structures and increased in vitro features; also recorded: in vivo-specific structures were undermined while some in vitro-specific features showed up | –
